From ChEMBL document CHEMBL3885881, “DrugMatrix”

Species: Rattus norvegicus
Assay: DrugMatrix - Regimen: Daily Repeat
Type: toxicity, organism-based, Sprague-Dawley
Parameters: regimen Daily Repeat, gender Male, age 6-8 weeks
Conditions: in vivo, po, route oral GAVAGE, vehicle .5 % CMC; for ABSOLUTE BASOPHIL / ABSOLUTE EOSINOPHIL / ABSOLUTE LYMPHOCYTE / ABSOLUTE MONOCYTE / ABSOLUTE SEGMENTED NEUTROPHIL / BASOPHIL / EOSINOPHIL / ERYTHROCYTE COUNT / HEMATOCRIT / HEMOGLOBIN / LEUKOCYTE COUNT / LYMPHOCYTE / MEAN CORPUSCULAR HEMOGLOBIN / MEAN CORPUSCULAR HEMOGLOBIN CONCENTRATION / MEAN CORPUSCULAR VOLUME / MONOCYTE / NEUTROPHIL / NUCLEATED RED BLOOD CELLS / PLATELET COUNT: tissue Blood; for ALANINE AMINOTRANSFERASE / ALBUMIN / ALKALINE PHOSPHATASE / ASPARTATE AMINOTRANSFERASE / BLOOD UREA NITROGEN / CARBON DIOXIDE / CHLORIDE / CHOLESTEROL / CREATINE PHOSPHOKINASE / CREATININE / GLUCOSE / LACTATE DEHYDROGENASE / LIPASE / PHOSPHORUS / POTASSIUM / SODIUM / TOTAL BILIRUBIN / TOTAL PROTEIN / URIC ACID: tissue Plasma
[1] = 8 mg/kg, 72 h, dose level High, time 3 day
[2] = 8 mg/kg, 120 h, dose level High, time 5 day
[3] = […], 72 h, dose 2.1 mg/Kg, dose level Low, time 3 day
[4] = […], 120 h, dose 2.1 mg/Kg, dose level Low, time 5 day

SMILES: C=C1CC[C@H](O)C/C1=C/C=C1\CCC[C@]2(C)[C@@H]([C@H](C)CCCC(C)C)CC[C@@H]12 [CHOLECALCIFEROL]
- ABSOLUTE BASOPHIL [1]: 0 CELLS/uL
- ABSOLUTE EOSINOPHIL [1]: 42 CELLS/uL
- ABSOLUTE LYMPHOCYTE [1]: 8592.67 CELLS/uL
- ABSOLUTE MONOCYTE [1]: 336 CELLS/uL
- ABSOLUTE SEGMENTED NEUTROPHIL [1]: 5029.33 CELLS/uL
- BASOPHIL [1]: 0%
- EOSINOPHIL [1]: 0.33%
- ERYTHROCYTE COUNT [1]: 5.75 x10E6/uL
- HEMATOCRIT [1]: 36.93%
- HEMOGLOBIN [1]: 14.13 G/DL
- LEUKOCYTE COUNT [1]: 14 x10E3/uL
- LYMPHOCYTE [1]: 61.67%
- MEAN CORPUSCULAR HEMOGLOBIN [1]: 24.7 pg
- MEAN CORPUSCULAR HEMOGLOBIN CONCENTRATION [1]: 38.27 G/DL
- MEAN CORPUSCULAR VOLUME [1]: 64.53 fL
- MONOCYTE [1]: 2.33%
- NEUTROPHIL [1]: 35.67%
- NUCLEATED RED BLOOD CELLS [1]: 0.33 /100WBC
- PLATELET COUNT [1]: 1172.33 x10E3/uL
- ALANINE AMINOTRANSFERASE [1]: 38.67 u/L
- ALBUMIN [1]: 4 G/DL
- ALKALINE PHOSPHATASE [1]: 218 u/L
- ASPARTATE AMINOTRANSFERASE [1]: 93 u/L
- BLOOD UREA NITROGEN [1]: 15.67 mg/dL
- CARBON DIOXIDE [1]: 25 mmol/L
- CHLORIDE [1]: 99.67 MEQ/L
- CHOLESTEROL [1]: 85.33 mg/dL
- CREATINE PHOSPHOKINASE [1]: 273 u/L
- CREATININE [1]: 0.19 mg/dL
- GLUCOSE [1]: 119.67 mg/dL
- LACTATE DEHYDROGENASE [1]: 381 u/L
- LIPASE [1]: 8.33 u/L
- PHOSPHORUS [1]: 12.67 mg/dL
- POTASSIUM [1]: 6.05 MEQ/L
- SODIUM [1]: 144.53 MEQ/L
- TOTAL BILIRUBIN [1]: 0.1 mg/dL
- TOTAL PROTEIN [1]: 6.3 G/DL
- URIC ACID [1]: 1.7 mg/dL
- ABSOLUTE BASOPHIL [2]: 0 CELLS/uL
- ABSOLUTE EOSINOPHIL [2]: 61.33 CELLS/uL
- ABSOLUTE LYMPHOCYTE [2]: 15719.67 CELLS/uL
- ABSOLUTE MONOCYTE [2]: 721.33 CELLS/uL
- ABSOLUTE SEGMENTED NEUTROPHIL [2]: 1931 CELLS/uL
- BASOPHIL [2]: 0%
- EOSINOPHIL [2]: 0.33%
- ERYTHROCYTE COUNT [2]: 6.73 x10E6/uL
- HEMATOCRIT [2]: 40.8%
- HEMOGLOBIN [2]: 16.17 G/DL
- LEUKOCYTE COUNT [2]: 18.43 x10E3/uL
- LYMPHOCYTE [2]: 84.33%
- MEAN CORPUSCULAR HEMOGLOBIN [2]: 24 pg
- MEAN CORPUSCULAR HEMOGLOBIN CONCENTRATION [2]: 39.67 G/DL
- MEAN CORPUSCULAR VOLUME [2]: 60.73 fL
- MONOCYTE [2]: 4%
- NEUTROPHIL [2]: 11.33%
- NUCLEATED RED BLOOD CELLS [2]: 0.33 /100WBC
- PLATELET COUNT [2]: 1207.33 x10E3/uL
- ALANINE AMINOTRANSFERASE [2]: 32.67 u/L
- ALBUMIN [2]: 3.77 G/DL
- ALKALINE PHOSPHATASE [2]: 216 u/L
- ASPARTATE AMINOTRANSFERASE [2]: 95.67 u/L
- BLOOD UREA NITROGEN [2]: 30.67 mg/dL
- CARBON DIOXIDE [2]: 29.33 mmol/L
- CHLORIDE [2]: 97 MEQ/L
- CHOLESTEROL [2]: 84.33 mg/dL
- CREATINE PHOSPHOKINASE [2]: 292 u/L
- CREATININE [2]: 0.31 mg/dL
- GLUCOSE [2]: 184 mg/dL
- LACTATE DEHYDROGENASE [2]: 195.33 u/L
- LIPASE [2]: 8 u/L
- PHOSPHORUS [2]: 12.17 mg/dL
- POTASSIUM [2]: 6.13 MEQ/L
- SODIUM [2]: 142.43 MEQ/L
- TOTAL BILIRUBIN [2]: 0.1 mg/dL
- TOTAL PROTEIN [2]: 6.37 G/DL
- URIC ACID [2]: 2.97 mg/dL
- ABSOLUTE BASOPHIL [3]: 0 CELLS/uL
- ABSOLUTE EOSINOPHIL [3]: 0 CELLS/uL
- ABSOLUTE LYMPHOCYTE [3]: 13778.67 CELLS/uL
- ABSOLUTE MONOCYTE [3]: 303 CELLS/uL
- ABSOLUTE SEGMENTED NEUTROPHIL [3]: 1018.33 CELLS/uL
- BASOPHIL [3]: 0%
- EOSINOPHIL [3]: 0%
- ERYTHROCYTE COUNT [3]: 5.26 x10E6/uL
- HEMATOCRIT [3]: 33.23%
- HEMOGLOBIN [3]: 13.23 G/DL
- LEUKOCYTE COUNT [3]: 15.1 x10E3/uL
- LYMPHOCYTE [3]: 91.33%
- MEAN CORPUSCULAR HEMOGLOBIN [3]: 25.17 pg
- MEAN CORPUSCULAR HEMOGLOBIN CONCENTRATION [3]: 39.83 G/DL
- MEAN CORPUSCULAR VOLUME [3]: 63.27 fL
- MONOCYTE [3]: 2%
- NEUTROPHIL [3]: 6.67%
- NUCLEATED RED BLOOD CELLS [3]: 0.33 /100WBC
- PLATELET COUNT [3]: 1338.67 x10E3/uL
- ALANINE AMINOTRANSFERASE [3]: 64.33 u/L
- ALBUMIN [3]: 4.5 G/DL
- ALKALINE PHOSPHATASE [3]: 325 u/L
- ASPARTATE AMINOTRANSFERASE [3]: 90.33 u/L
- BLOOD UREA NITROGEN [3]: 18 mg/dL
- CARBON DIOXIDE [3]: 24 mmol/L
- CHLORIDE [3]: 102.33 MEQ/L
- CHOLESTEROL [3]: 85.67 mg/dL
- CREATINE PHOSPHOKINASE [3]: 170.67 u/L
- CREATININE [3]: 0.22 mg/dL
- GLUCOSE [3]: 154.33 mg/dL
- LACTATE DEHYDROGENASE [3]: 246.33 u/L
- LIPASE [3]: 9.33 u/L
- PHOSPHORUS [3]: 15.17 mg/dL
- POTASSIUM [3]: 7.26 MEQ/L
- SODIUM [3]: 149.17 MEQ/L
- TOTAL BILIRUBIN [3]: 0.33 mg/dL
- TOTAL PROTEIN [3]: 6.3 G/DL
- URIC ACID [3]: 1.63 mg/dL
- ABSOLUTE BASOPHIL [4]: 0 CELLS/uL
- ABSOLUTE EOSINOPHIL [4]: 46.67 CELLS/uL
- ABSOLUTE LYMPHOCYTE [4]: 13112 CELLS/uL
- ABSOLUTE MONOCYTE [4]: 47.33 CELLS/uL
- ABSOLUTE SEGMENTED NEUTROPHIL [4]: 1427.33 CELLS/uL
- BASOPHIL [4]: 0%
- EOSINOPHIL [4]: 0.33%
- ERYTHROCYTE COUNT [4]: 5.69 x10E6/uL
- HEMATOCRIT [4]: 37.6%
- HEMOGLOBIN [4]: 14.5 G/DL
- LEUKOCYTE COUNT [4]: 14.63 x10E3/uL
- LYMPHOCYTE [4]: 89.67%
- MEAN CORPUSCULAR HEMOGLOBIN [4]: 25.53 pg
- MEAN CORPUSCULAR HEMOGLOBIN CONCENTRATION [4]: 38.57 G/DL
- MEAN CORPUSCULAR VOLUME [4]: 66.17 fL
- MONOCYTE [4]: 0.33%
- NEUTROPHIL [4]: 9.67%
- NUCLEATED RED BLOOD CELLS [4]: 0.33 /100WBC
- PLATELET COUNT [4]: 1071 x10E3/uL
- ALANINE AMINOTRANSFERASE [4]: 53 u/L
- ALBUMIN [4]: 4.6 G/DL
- ALKALINE PHOSPHATASE [4]: 301.33 u/L
- ASPARTATE AMINOTRANSFERASE [4]: 84 u/L
- BLOOD UREA NITROGEN [4]: 19.67 mg/dL
- CARBON DIOXIDE [4]: 31.67 mmol/L
- CHLORIDE [4]: 97.33 MEQ/L
- CHOLESTEROL [4]: 72.33 mg/dL
- CREATINE PHOSPHOKINASE [4]: 267.33 u/L
- CREATININE [4]: 0.24 mg/dL
- GLUCOSE [4]: 143.33 mg/dL
- LACTATE DEHYDROGENASE [4]: 287 u/L
- LIPASE [4]: 8.67 u/L
- PHOSPHORUS [4]: 11.33 mg/dL
- POTASSIUM [4]: 6.64 MEQ/L
- SODIUM [4]: 141.97 MEQ/L
- TOTAL BILIRUBIN [4]: 0.2 mg/dL
- URIC ACID [4]: 1.67 mg/dL
